# What was measured:
# [1] = in vivo; details: mouse, iv
# [2] = system: aminoglycoside 3'-phosphotransferases; assay: Inactivation by aminoglycoside 3'-phosphotransferases; assay type: biochemical
# [3] = system: resistant strains which produce 6'-acetyltransferases, for example Pseudomonas aeruginosa GN315; assay: Activity against resistant strains producing 6'-acetyltransferases; assay type: cell-based; details: compared with kanamycin B derivatives
# [4] = system: bacterial strains; assay: Antibacterial activity in general (summary of Table 1); assay type: cell-based
# Procedure: (§1) The minimum inhibitory concentrations (mcg/ml) of kanamycin C, 3'-deoxykanamycin C and 3',4'-dideoxykanamycin C against various microorganisms were determened according to serial dilution method using nutrient agar medium at 37° C., the estimation being effected after 18 hours incubation.
# [5] = system: Pseudomonas aeruginosa H 11; assay: Minimum inhibitory concentration, serial dilution method; assay type: cell-based; details: H11, nutrient agar, 37° C., 18 hours, P. aeruginosa H 11, read-out: Minimum Inhibitory Concentration
# Procedure: as §1
# [6] = system: Pseudomonas aeruginosa GN 315; assay: as above; assay type: cell-based; details: GN315, nutrient agar, 37° C., 18 hours, P. aeruginosa GN 315, read-out: Minimum Inhibitory Concentration
# Procedure: as §1
# [7] = system: Escherichia coli K-12 R5; assay: as above; assay type: cell-based; details: K12R5, 18 h, read-out: Minimum Inhibitory Concentration
# Procedure: as §1
# [8] = system: Pseudomonas aeruginosa A3; assay: as above; assay type: cell-based; details: nutrient agar, 37° C., 18 hours, P. aeruginosa A3
# Procedure: as §1
# [9] = system: Staphylococcus aureus FDA 209P; assay: as above; assay type: cell-based; details: FDA209P, 18 h, read-out: Minimum Inhibitory Concentration
# Procedure: as §1
# [10] = system: Escherichia coli LA 290 R55; assay: as above; assay type: cell-based; details: LA290R55, 18 h, read-out: Minimum Inhibitory Concentration
# Procedure: as §1
# [11] = system: Escherichia coli LA 290 R56; assay: as above; assay type: cell-based; details: LA290R56, 18 h, read-out: Minimum Inhibitory Concentration
# Procedure: as §1
# [12] = system: Mycobacterium smegmatis ATCC 607; assay: as above; assay type: cell-based; details: Mycolicibacterium smegmatis, ATCC607, 18 h, read-out: Minimum Inhibitory Concentration
# Procedure: as §1
# [13] = system: Escherichia coli W 677; assay: as above; assay type: cell-based; details: W677, 18 h, read-out: Minimum Inhibitory Concentration
# Procedure: as §1
# [14] = system: Escherichia coli K-12 ML 1629; assay: as above; assay type: cell-based; details: K12ML1629, 18 h, read-out: Minimum Inhibitory Concentration
# Procedure: as §1
# [15] = system: Escherichia coli K-12 ML 1630; assay: as above; assay type: cell-based; details: K12ML1630, nutrient agar, 37° C., 18 hours, E. coli K-12 ML 1630
# Procedure: as §1
# [16] = system: Escherichia coli JR 66/W677; assay: as above; assay type: cell-based; details: JR66/W677, 18 h, read-out: Minimum Inhibitory Concentration
# Procedure: as §1
# [17] = system: Escherichia coli K-12 ML 1410; assay: as above; assay type: cell-based; details: K12ML1410, nutrient agar, 37° C., 18 hours, E. coli K-12 ML 1410
# Procedure: as §1
# [18] = system: Klebsiella pneumoniae PCI 602; assay: as above; assay type: cell-based; details: PCI602, 18 h, read-out: Minimum Inhibitory Concentration
# Procedure: as §1
# [19] = system: Klebsiella pneumoniae 22 No. 3038; assay: as above; assay type: cell-based; details: 22NO.3038, 18 h, read-out: Minimum Inhibitory Concentration
# Procedure: as §1
# [20] = system: Escherichia coli LA 290 R64; assay: as above; assay type: cell-based; details: LA290R64, 18 h, read-out: Minimum Inhibitory Concentration
# Procedure: as §1
# [21] = system: Escherichia coli K-12 ML 1410 R81; assay: as above; assay type: cell-based; details: 18 h, read-out: Minimum Inhibitory Concentration
# Procedure: as §1
# [22] = system: Pseudomonas aeruginosa TI-13; assay: as above; assay type: cell-based; details: TI13, nutrient agar, 37° C., 18 hours, P. aeruginosa TI-13, read-out: Minimum Inhibitory Concentration
# Procedure: as §1
# [23] = system: Escherichia coli NIHJ; assay: as above; assay type: cell-based; details: 18 h, read-out: Minimum Inhibitory Concentration
# Procedure: as §1
# [24] = system: Escherichia coli K-12; assay: as above; assay type: cell-based; details: K12, 18 h, read-out: Minimum Inhibitory Concentration
# Procedure: as §1
# [25] = system: Pseudomonas aeruginosa No. 12; assay: as above; assay type: cell-based; details: NO.12, 18 h, read-out: Minimum Inhibitory Concentration
# Procedure: as §1
# [26] = system: 99; assay: as above; assay type: cell-based; details: 18 h, read-out: Minimum Inhibitory Concentration
# Procedure: as §1
# [27] = mouse, in vivo
# [28] = system: aminoglycoside 6'-acetyltransferases; assay: Inactivation by aminoglycoside 6'-acetyltransferases; assay type: biochemical
compound,measurement,setting,value
"NC1CC(O)C(CO)OC1OC1C(N)CC(N)C(OC2OC(CO)C(O)C(N)C2O)C1O (centres unmarked) [3'-Deoxykanamycin C, 3'-deoxykanamycin C]",LD50,[1],> 300 mg/kg
same,inactivation by 3'-phosphotransferases,[2],not inactivated
same,activity against resistant strains which produce 6'-acetyltransferases,[3],more active than kanamycin B derivatives
same,growth inhibition of bacterial strains,[4],inhibits the growth of many kinds of bacterial strains
same,"antibacterial activity compared with 3'-deoxykanamycin B and 3',4'-dideoxykanamycin B",[4]; against some bacteria strains,inferior
same,MIC,[5],50 µg/mL
same,MIC,[6],50 µg/mL
same,MIC,[7],12.5 µg/mL
same,MIC,[8],12.5 µg/mL
same,MIC,[9],3.13 µg/mL
same,MIC,[10],> 100 µg/mL
same,MIC,[11],100 µg/mL
same,MIC,[12],25 µg/mL
same,MIC,[13],6.25 µg/mL
same,MIC,[14],12.5 µg/mL
same,MIC,[15],12.5 µg/mL
same,MIC,[16],> 100 µg/mL
same,MIC,[17],12.5 µg/mL
same,MIC,[18],6.25 µg/mL
same,MIC,[19],> 100 µg/mL
same,MIC,[20],50 µg/mL
same,MIC,[21],50 µg/mL
same,MIC,[22],50 µg/mL
same,MIC,[23],12.5 µg/mL
same,MIC,[24],12.5 µg/mL
same,MIC,[25],100 µg/mL
same,MIC,[26],100 µg/mL
same,acute toxicity compared with deoxy derivatives of kanamycin B,[27],remarkably lower toxicity
same,inactivation by 6'-acetyltransferases,[28],not inactivated
